Measured values taken from patent US20260042731A1, “(2,4-DICHLOROPHENOXY)ACETIC ACID ANALOGS” (CORTEVA AGRISCIENCE LLC, priority 2022, published 2026).
Like-named read-outs stand apart in the source and are kept apart here.

Experiments:
[1] = tested on: Amaranthus rudis (AMATA), tall water hemp; test: Postemergence herbicide evaluation, growth of Amaranthus rudis (AMATA); assay type: in vivo; conditions: Amaranthus tuberculatus, post-emergence, read-out: Ave. AMATA, percent reduction in plant size relative to the untreated control
[2] = tested on: Ambrosia artemisiifolia (AMBEL), common ragweed; test: Postemergence herbicide evaluation, growth of Ambrosia artemisiifolia (AMBEL); assay type: in vivo; conditions: Ambrosia artemisiifolia, post-emergence, read-out: AVE. AMBEL, percent reduction in plant size relative to the untreated control
[3] = tested on: Abutilon theophrasti (ABUTH), velvetleaf; test: Postemergence herbicide evaluation, growth of Abutilon theophrasti (ABUTH); assay type: in vivo; conditions: Abutilon theophrasti, post-emergence, read-out: AVE. ABUTH, percent reduction in plant size relative to the untreated control
[4] = tested on: Chenopodium album (CHEAL), common lambsquarters; test: Postemergence herbicide evaluation, growth of Chenopodium album (CHEAL); assay type: in vivo; conditions: Chenopodium album, post-emergence, read-out: Ave. CHEAL, percent reduction in plant size relative to the untreated control
[5] = tested on: glyphosate resistant Conyza canadensis (L.) (ERICA), horseweed; test: Postemergence herbicide evaluation, growth of Conyza canadensis (ERICA); assay type: in vivo; conditions: Erigeron canadensis, post-emergence, read-out: Ave. ERICA, percent reduction in plant size relative to the untreated control
[6] = Volatility of compounds measured by thermogravimetric analysis (TGA); assay type: physicochemical
[7] = tested on: weeds ABUTH, AMATA, AMBEL, CHEAL, ERICA; test: Postemergence herbicide evaluation, overall average % weed control (ABUTH, AMATA, AMBEL, CHEAL, ERICA); assay type: in vivo; conditions: post-emergence, read-out: Overall Ave % Weed Control

Which pest or weed control at 280 g/ha ([1]; 168 h) does the source give for `O=C(COc1ccc(Cl)cc1Cl)n1ncc2ccccc21` [Compound D3, 2-(2,4-Dichlorophenoxy)-1-(1H-indazol-1-yl)ethanone] here?
Its pest or weed control at 280 g/ha is 70%.

And the pest or weed control at 560 g/ha ([1]; 168 h)?
The pest or weed control at 560 g/ha was 73%.

And the pest or weed control at 280 g/ha ([1]; 336 h)?
Its pest or weed control at 280 g/ha is 73%.

What about the pest or weed control at 560 g/ha ([1]; 336 h) of the same compound?
The pest or weed control at 560 g/ha was 80%.

And the pest or weed control at 280 g/ha ([1]; 504 h)?
Its pest or weed control at 280 g/ha is 75%.

What about the pest or weed control at 560 g/ha ([1]; 504 h) of the same compound?
The pest or weed control at 560 g/ha was 78%.

What about the pest or weed control at 280 g/ha ([2]; 168 h) of the same compound?
Its pest or weed control at 280 g/ha is 63%.

What about the pest or weed control at 560 g/ha ([2]; 168 h) of the same compound?
Its pest or weed control at 560 g/ha is 68%.

And the pest or weed control at 280 g/ha ([2]; 336 h)?
The pest or weed control at 280 g/ha was 75%.

And the pest or weed control at 560 g/ha ([2]; 336 h)?
Its pest or weed control at 560 g/ha is 90%.

And the pest or weed control at 280 g/ha ([2]; 504 h)?
Its pest or weed control at 280 g/ha is 73%.

What about the pest or weed control at 560 g/ha ([2]; 504 h) of the same compound?
Its pest or weed control at 560 g/ha is 95%.

What about the pest or weed control at 280 g/ha ([3]; 168 h) of the same compound?
The pest or weed control at 280 g/ha was 30%.

And the pest or weed control at 560 g/ha ([3]; 168 h)?
Its pest or weed control at 560 g/ha is 48%.

What about the pest or weed control at 280 g/ha ([3]; 336 h) of the same compound?
The pest or weed control at 280 g/ha was 25%.

And the pest or weed control at 560 g/ha ([3]; 336 h)?
The pest or weed control at 560 g/ha was 43%.

What about the pest or weed control at 280 g/ha ([3]; 504 h) of the same compound?
Its pest or weed control at 280 g/ha is 23%.

And the pest or weed control at 560 g/ha ([3]; 504 h)?
The pest or weed control at 560 g/ha was 35%.

What about the pest or weed control at 280 g/ha ([4]; 168 h) of the same compound?
Its pest or weed control at 280 g/ha is 68%.

What about the pest or weed control at 560 g/ha ([4]; 168 h) of the same compound?
Its pest or weed control at 560 g/ha is 68%.

What about the pest or weed control at 280 g/ha ([4]; 336 h) of the same compound?
The pest or weed control at 280 g/ha was 63%.

And the pest or weed control at 560 g/ha ([4]; 336 h)?
The pest or weed control at 560 g/ha was 70%.

What about the pest or weed control at 280 g/ha ([4]; 504 h) of the same compound?
The pest or weed control at 280 g/ha was 63%.

And the pest or weed control at 560 g/ha ([4]; 504 h)?
Its pest or weed control at 560 g/ha is 70%.

And the pest or weed control at 280 g/ha ([5]; 168 h)?
Its pest or weed control at 280 g/ha is 63%.

What about the pest or weed control at 560 g/ha ([5]; 168 h) of the same compound?
The pest or weed control at 560 g/ha was 68%.

What about the pest or weed control at 280 g/ha ([5]; 336 h) of the same compound?
Its pest or weed control at 280 g/ha is 83%.

What about the pest or weed control at 560 g/ha ([5]; 336 h) of the same compound?
Its pest or weed control at 560 g/ha is 85%.

What about the pest or weed control at 280 g/ha ([5]; 504 h) of the same compound?
The pest or weed control at 280 g/ha was 84%.

What about the pest or weed control at 560 g/ha ([5]; 504 h) of the same compound?
Its pest or weed control at 560 g/ha is 88%.

And the “TGA Data (rate of weight loss, volatility)” value [6]?
Its value is 0.03 µg/min.

And the pest or weed control at 280 g/ha ([7]; 168 h)?
The pest or weed control at 280 g/ha was 59%.

What about the pest or weed control at 560 g/ha ([7]; 168 h) of the same compound?
Its pest or weed control at 560 g/ha is 65%.

And the pest or weed control at 280 g/ha ([7]; 336 h)?
Its pest or weed control at 280 g/ha is 64%.

What about the pest or weed control at 560 g/ha ([7]; 336 h) of the same compound?
Its pest or weed control at 560 g/ha is 74%.

And the pest or weed control at 280 g/ha ([7]; 504 h)?
Its pest or weed control at 280 g/ha is 63%.

What about the pest or weed control at 560 g/ha ([7]; 504 h) of the same compound?
Its pest or weed control at 560 g/ha is 73%.

For `O=C(COc1ccc(Cl)cc1Cl)Nc1nccs1` [Compound D24], which pest or weed control at 280 g/ha ([1]; 168 h, 280 g ae/ha, 7 DAA) is on record?
The pest or weed control at 280 g/ha was 80%.

And the pest or weed control at 560 g/ha ([1]; 168 h, 560 g ae/ha, 7 DAA)?
The pest or weed control at 560 g/ha was 85%.

What about the pest or weed control at 280 g/ha ([1]; 336 h, 280 g ae/ha, 14 DAA) of the same compound?
Its pest or weed control at 280 g/ha is 87.5%.

What about the pest or weed control at 560 g/ha ([1]; 336 h, 560 g ae/ha, 14 DAA) of the same compound?
Its pest or weed control at 560 g/ha is 85%.

And the pest or weed control at 280 g/ha ([1]; 504 h, 280 g ae/ha, 21 DAA)?
The pest or weed control at 280 g/ha was 77.5%.

What about the pest or weed control at 560 g/ha ([1]; 504 h, 560 g ae/ha, 21 DAA) of the same compound?
The pest or weed control at 560 g/ha was 92.5%.

And the pest or weed control at 280 g/ha ([2]; 168 h, 280 g ae/ha, 7 DAA)?
The pest or weed control at 280 g/ha was 77.5%.

And the pest or weed control at 560 g/ha ([2]; 168 h, 560 g ae/ha, 7 DAA)?
The pest or weed control at 560 g/ha was 67.5%.

What about the pest or weed control at 280 g/ha ([2]; 336 h, 280 g ae/ha, 14 DAA) of the same compound?
Its pest or weed control at 280 g/ha is 80%.

And the pest or weed control at 560 g/ha ([2]; 336 h, 560 g ae/ha, 14 DAA)?
The pest or weed control at 560 g/ha was 92.5%.

And the pest or weed control at 280 g/ha ([2]; 504 h, 280 g ae/ha, 21 DAA)?
Its pest or weed control at 280 g/ha is 100%.

What about the pest or weed control at 560 g/ha ([2]; 504 h, 560 g ae/ha, 21 DAA) of the same compound?
The pest or weed control at 560 g/ha was 100%.

And the pest or weed control at 280 g/ha ([3]; 168 h, 280 g ae/ha, 7 DAA)?
Its pest or weed control at 280 g/ha is 40%.

What about the pest or weed control at 560 g/ha ([3]; 168 h, 560 g ae/ha, 7 DAA) of the same compound?
Its pest or weed control at 560 g/ha is 47.5%.

And the pest or weed control at 280 g/ha ([3]; 336 h, 280 g ae/ha, 14 DAA)?
Its pest or weed control at 280 g/ha is 55%.

And the pest or weed control at 560 g/ha ([3]; 336 h, 560 g ae/ha, 14 DAA)?
Its pest or weed control at 560 g/ha is 65%.

What about the pest or weed control at 280 g/ha ([3]; 504 h, 280 g ae/ha, 21 DAA) of the same compound?
Its pest or weed control at 280 g/ha is 70%.

What about the pest or weed control at 560 g/ha ([3]; 504 h, 560 g ae/ha, 21 DAA) of the same compound?
The pest or weed control at 560 g/ha was 70%.

And the pest or weed control at 280 g/ha ([4]; 168 h, 280 g ae/ha, 7 DAA)?
The pest or weed control at 280 g/ha was 82.5%.

And the pest or weed control at 560 g/ha ([4]; 168 h, 560 g ae/ha, 7 DAA)?
The pest or weed control at 560 g/ha was 75%.

And the pest or weed control at 280 g/ha ([4]; 336 h, 280 g ae/ha, 14 DAA)?
The pest or weed control at 280 g/ha was 90%.

What about the pest or weed control at 560 g/ha ([4]; 336 h, 560 g ae/ha, 14 DAA) of the same compound?
Its pest or weed control at 560 g/ha is 92.5%.

What about the pest or weed control at 280 g/ha ([4]; 504 h, 280 g ae/ha, 21 DAA) of the same compound?
Its pest or weed control at 280 g/ha is 90%.

And the pest or weed control at 560 g/ha ([4]; 504 h, 560 g ae/ha, 21 DAA)?
The pest or weed control at 560 g/ha was 95%.

What about the pest or weed control at 280 g/ha ([5]; 168 h, 280 g ae/ha, 7 DAA) of the same compound?
Its pest or weed control at 280 g/ha is 70%.

And the pest or weed control at 560 g/ha ([5]; 168 h, 560 g ae/ha, 7 DAA)?
Its pest or weed control at 560 g/ha is 75%.

And the pest or weed control at 280 g/ha ([5]; 336 h, 280 g ae/ha, 14 DAA)?
Its pest or weed control at 280 g/ha is 95%.

What about the pest or weed control at 560 g/ha ([5]; 336 h, 560 g ae/ha, 14 DAA) of the same compound?
The pest or weed control at 560 g/ha was 87.5%.

What about the pest or weed control at 280 g/ha ([5]; 504 h, 280 g ae/ha, 21 DAA) of the same compound?
The pest or weed control at 280 g/ha was 97.5%.

And the pest or weed control at 560 g/ha ([5]; 504 h, 560 g ae/ha, 21 DAA)?
The pest or weed control at 560 g/ha was 99.5%.

What about the “TGA Data (rate of weight loss, volatility)” value [6] of the same compound?
The value was 0.08298 µg/min.

What about the pest or weed control at 280 g/ha ([7]; 168 h, 280 g ae/ha, 7 DAA) of the same compound?
The pest or weed control at 280 g/ha was 70%.

And the pest or weed control at 560 g/ha ([7]; 168 h, 560 g ae/ha, 7 DAA)?
The pest or weed control at 560 g/ha was 70%.

What about the pest or weed control at 280 g/ha ([7]; 336 h, 280 g ae/ha, 14 DAA) of the same compound?
The pest or weed control at 280 g/ha was 81.5%.

What about the pest or weed control at 560 g/ha ([7]; 336 h, 560 g ae/ha, 14 DAA) of the same compound?
The pest or weed control at 560 g/ha was 84.5%.

What about the pest or weed control at 280 g/ha ([7]; 504 h, 280 g ae/ha, 21 DAA) of the same compound?
Its pest or weed control at 280 g/ha is 87%.

What about the pest or weed control at 560 g/ha ([7]; 504 h, 560 g ae/ha, 21 DAA) of the same compound?
Its pest or weed control at 560 g/ha is 91.4%.
